Patent US8404692B2, “Pyrimidin-4-yl-3, 4-dihydro-2H-pyrrolo [1,2A] pyrazin-1-one compounds” (Cyclacel Limited, priority 2005, dated 2013)
pIC50: −log10 of the molar value.

molecular target: T1, aurora-A (human) (Homo sapiens, UniProt O14965); test: Aurora-A (human) kinase assay; assay type: biochemical; details: read-out: Activity (Aurora A activity, IC50 grading)
T1 construct: purchased Upstate, Dundee, UK
T1 sequence (O14965 1-403): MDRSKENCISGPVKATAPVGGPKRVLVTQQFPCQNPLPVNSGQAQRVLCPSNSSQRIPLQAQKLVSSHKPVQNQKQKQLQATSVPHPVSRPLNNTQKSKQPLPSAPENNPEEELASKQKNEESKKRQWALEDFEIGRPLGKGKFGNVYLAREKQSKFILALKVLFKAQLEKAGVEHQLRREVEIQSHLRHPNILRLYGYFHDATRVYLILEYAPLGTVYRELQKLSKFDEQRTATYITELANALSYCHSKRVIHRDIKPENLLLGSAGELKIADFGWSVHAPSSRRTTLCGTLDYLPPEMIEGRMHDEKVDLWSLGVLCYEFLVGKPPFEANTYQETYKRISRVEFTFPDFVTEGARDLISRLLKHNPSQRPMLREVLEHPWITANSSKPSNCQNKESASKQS
Protocol: This was achieved by measurement of incorporation of radioactive phosphate from ATP into Kemptide substrate (LRRASLG), upon phosphorylation by commercially obtained aurora-A (human, Upstate; Dundee, UK). Assays were performed using 96-well plates and appropriate assay buffers (20 mM Tris, 25 mM β-glycerophosphate, 5 mM EGTA, 1 mM DTT, 1 mM sodium vanadate, pH 7.5), into which were added 2-5 ng of active enzyme with 500 μM substrate (Kemptide). The reactions were initiated by addition of MATP mix (15 mM MgCl2+100 μM ATP with 15-25 kBq per well of [γ-^32P]-ATP) and mixtures incubated for 30 min at 30° C. Reactions were stopped by addition of an equal volume of 75 mM aq orthophosphoric acid, followed by filtration through p81 filterplates (Whatman Polyfiltronics, Kent, UK). After washing 4 times with 75 mM aq orthophosphoric acid, plates were dried, scintillant added and incorporated radioactivity measured in a scintillation counter (TopCount, Packard Instruments, Pangbourne, Berks, UK). Compounds for kinase assay were made up as 10 mM stocks in DMSO and diluted into 10% DMSO in assay buffer. Data was analysed using curve-fitting software (XLfit version 4.0.2, IDBS, Guildford, Surrey, UK) to determine IC50 values (concentration of test compound which inhibits kinase activity by 50%).

| pIC50 | SMILES |
| --- | --- |
| > 7.00 | Cc1c(-c2ccnc(Nc3ccc(-c4csnn4)cc3)n2)c(C)n2c1C(=O)NCC2 [Example I-60, 6,8-Dimethyl-7-[2-(4-[1,2,3]thiadiazol-4-yl-phenylamino)-pyrimidin-4-yl]-3,4-dihydro-2H-pyrrolo[1,2-a]pyrazin-1-one] |
| > 6.00 | Cc1c(-c2ccnc(Nc3ccc(OC(F)(F)F)cc3)n2)c(C)n2c1C(=O)NCC2 [Example I-61, 6,8-Dimethyl-7-[2-(4-trifluoromethoxy-phenylamino)pyrimidin-4-yl]-3,4-dihydro-2H-pyrrolo[1,2-a]pyrazin-1-one] |
| > 7.00 | COc1ccc(Nc2nccc(-c3c(C)c4n(c3C)CCNC4=O)n2)cc1Cl [Example I-67, 7-[2-(3-Chloro-4-methoxy-phenylamino)-pyrimidin-4-yl]-6,8-dimethyl-3,4-dihydro-2H-pyrrolo[1,2-a]pyrazin-1-one] |
| > 6.00 | Cc1c(-c2ccnc(Nc3ccc(-n4cccn4)cc3)n2)c(C)n2c1C(=O)NCC2 [Example I-72, 6,8-Dimethyl-7-[2-(4-pyrazol-1-yl-phenylamino)-pyrimidin-4-yl]-3,4-dihydro-2H-pyrrolo[1,2-a]pyrazin-1-one] |

Continued, molecule first:

| SMILES | pIC50 |
| --- | --- |
| Cc1c(-c2ccnc(Nc3ccc4c(c3)OCCCO4)n2)c(C)n2c1C(=O)NCC2 [Example I-62, 7-[2-(3,4-Dihydro-2H-benzo[b][1,4]dioxepin-7-ylamino)-pyrimidin-4-yl]-6,8-dimethyl-3,4-dihydro-2H-pyrrolo[1,2-a]pyrazin-1-one] | > 7.00 |
| Cc1c(-c2ccnc(Nc3ccc4c(c3)CS(=O)(=O)C4)n2)c(C)n2c1C(=O)NCC2 [Example I-63, 7-[2-(2,2-Dioxo-2,3-dihydro-1H-2-benzo[c]thiophen-5-ylamino)-pyrimidin-4-yl]-6,8-dimethyl-3,4-dihydro-2H-pyrrolo[1,2-a]pyrazin-1-one] | > 7.00 |
| Cc1c(-c2ccnc(Nc3ccc(F)c(Cl)c3)n2)c(C)n2c1C(=O)NCC2 [Example I-64, 7-[2-(3-Chloro-4-fluoro-phenylamino)-pyrimidin-4-yl]-6,8-dimethyl-3,4-dihydro-2H-pyrrolo[1,2-a]pyrazin-1-one] | > 6.00 |
| Cc1c(-c2ccnc(Nc3ccccc3F)n2)c(C)n2c1C(=O)NCC2 [Example I-65, 7-[2-(2-Fluoro-phenylamino)-pyrimidin-4-yl]-6,8-dimethyl-3,4-dihydro-2H-pyrrolo[1,2-a]pyrazin-1-one] | > 6.00 |
| Cc1c(-c2ccnc(Nc3ccc(F)cc3F)n2)c(C)n2c1C(=O)NCC2 [Example I-66, 7-[2-(2,4-Difluoro-phenylamino)-pyrimidin-4-yl]-6,8-dimethyl-3,4-dihydro-2H-pyrrolo[1,2-a]pyrazin-1-one] | > 5.00 |
| Cc1c(-c2ccnc(Nc3ccc(C(F)(F)F)cc3)n2)c(C)n2c1C(=O)NCC2 [Example I-68, 6,8-Dimethyl-7-[2-(4-trifluoromethyl-phenylamino)-pyrimidin-4-yl]-3,4-dihydro-2H-pyrrolo[1,2-a]pyrazin-1-one] | > 5.00 |
| Cc1c(-c2ccnc(Nc3cccc(Cl)c3)n2)c(C)n2c1C(=O)NCC2 [Example I-69, 7-[2-(3-Chloro-phenylamino)-pyrimidin-4-yl]-6,8-dimethyl-3,4-dihydro-2H-pyrrolo[1,2-a]pyrazin-1-one] | > 6.00 |
| Cc1c(-c2ccnc(Nc3ccc(CC(=O)O)cc3)n2)c(C)n2c1C(=O)NCC2 [Example I-70, {4-[4-(6,8-dimethyl-1-oxo-1,2,3,4-tetrahydro-pyrrolo[1,2-a]pyrazin-7-yl)-pyrimidin-2-ylamino]-phenyl}-acetic acid] | > 7.00 |
| Cc1nc(-c2ccc(Nc3nccc(-c4c(C)c5n(c4C)CCNC5=O)n3)cc2)cs1 [Example I-71, 6,8-Dimethyl-7-{2-[4-(2-methyl-thiazol-4-yl)-phenylamino]-pyrimidin-4-yl}-3,4-dihydro-2H-pyrrolo[1,2-a]pyrazin-1-one] | > 6.00 |
| Cc1c(-c2ccnc(Nc3ccc(-n4cncn4)cc3)n2)c(C)n2c1C(=O)NCC2 [Example I-73, 6,8-Dimethyl-7-[2-(4-[1,2,4]triazol-1-yl-phenylamino)-pyrimidin-4-yl]-3,4-dihydro-2H-pyrrolo[1,2-a]pyrazin-1-one] | > 6.00 |
